The source of these data is patent US10130616B2, “Securinine and norsecurinine analogue compounds for the treatment of myeloid disorders” (Case Western Reserve University, priority 2013, dated 2018).

The test system of data set [1] is HL-60 leukemic cells. As to conditions: HL-60 cells; from U.S. patent application Ser. No. 14/029,066; cited from earlier work.
For the next data set, the system named is CD14 and CD11b. As to conditions: flow cytometry; cited from earlier work. In general terms: A flow cytometer gives signals particle by particle.
The next data set has as its system p21. The note with it: cited from earlier work.
A further data set deals with p44/p42 and p38. As to conditions: cited from earlier work.
A further data set deals with HL-60 cells. The note with it: cited from earlier work.
Data set [2] relates to a variety of leukemic cell lines. The note with it: cited from earlier work.
In another data set the test system is cell cycle (G0/G1). The note with it: cited from earlier work.
The subject of a further data set is CEBPβ. The note with it: cited from earlier work.
In data set [3] the test system is 60 cancer cell lines, normal human lymphocytes, normal human bone marrow, mouse embryonic fibroblasts, and human umbilical vein endothelial cells. The note with it: 60 cancer cell lines and normal cells; cited from earlier work.
For a further data set, the system named is leukemic cells. The note with it: cited from earlier work.
The test system of data set [4] is HL-60 leukemic cells. As to the kind of experiment: Nitroblue Tetrazolium (NBT) reduction assay, differentiation of HL-60 leukemic cells. The data set is classed as cell-based, human. The note with it: Homo sapiens, HL-60, read-out: HL-60, Dif50. From the text: In an aspect of the present disclosure, the compounds of the disclosure can be identified using a novel high-throughput screen that is biased to identify agents that have both a high potency and low toxicity in a myeloid disorder disease model, such as an animal or cell model. In some embodiments, the high-throughput screen measures the differentiation of HL-60 leukemic cells using a quantitative nitroblue tetrazolium (NBT) reduction assay. Screening HL-60 cells, human promyelocytic cells, is advantageous as they have been used extensively as a cell line to study myeloid differentiation. Though promyelocytic cells, HL-60 cells were derived from a patient with acute myeloblastic leukemia with maturation, FAB-M2.
This technique has also been widely exploited in HL-60 cells to analyze myelomonocytic differentiation.
The NBT screen works due to changes in the oxidoreductases during differentiation that lead to increases in rates of NBT reduction. NBT is reduced due to the production of superoxide that is catalyzed by an NADPH oxidase. […] NBT is reduced by superoxide from a soluble yellow compound to insoluble blue formazan granules whose formation can be monitored spectrophotometrically at 560 nm as the unreduced dye has minimal absorbance at this wavelength. A quantitative NBT reduction assay is ideal for this type of screen as it is simple, sensitive, quantitative, requires minimal cells, has been proven to have low well to well variability, and the amount of reduced NBT is proportional to the number of cells reducing the dye as well as the amount reduced by each cell.
To discover novel AML differentiation-inducing compounds a rapid high-throughput screen (HTS) was developed and optimized. The screen was designed to be biased to identify compounds that, unlike the majority of known differentiation-inducing agents, have both high potency and low toxicity. The screen measured the differentiation of HL-60 leukemic cells using a quantitative Nitroblue Tetrazolium (NBT) reduction assay, a test that is used extensively as a measure of functional myelomonocytic differentiation. The basis for the screen is unreduced NBT exists as a yellow soluble dye. Differentiated leukemic cells are capable of producing a respiratory burst that can reduce NBT into a blue insoluble compound that can be measured spectrophotometrically. This forward chemical genetics approach allowed the discovery of novel compounds that can act on targets not previously known to be “drugable.” As only live cells can reduce NBT, the screen is biased in identifying relatively nontoxic compounds.
To perform the screen, duplicate plates of HL-60 cells were cultured at a density of 5×10^4 cells/mL with 10 μM of each compound in 96 well plates for 5 days. To determine the relative capability for a compound to induce differentiation compared to known potent inducers, each plate destined for the NBT reduction assay included wells with 0.1% DMSO (vehicle control) and 1 μM ATRA. This approach eliminates any slight day to day variation in NBT reduction values and allows the discovery of compounds with similar or greater efficacy to ATRA. Differentiation was determined in the 96 well plates by incubating the cells with 1 mg/mL of NBT and 200 ng/mL of PMA as the stimulant for the respiratory burst for 35 minutes at 37° C. The reaction was then stopped with HCl and the formazan solubilized with DMSO. Finally, the reaction mixture was read spectrophotometrically at 560 nm in a plate reader.
The securinine and norsecurinine analogues were tested and evaluated on their abilities to affect differentiation and growth of HL-60 cells (Table 1).

A further data set concerns c-myc. The note with it: cited from earlier work.

On to `O=C1C=C2C=C[C@@H]3C[C@@]2(O1)[C@H]1CCCCN31` [Securinine, (6S,11aR,11bS)-9,10,11,11a-tetrahydro-8H-6,11b-methanofuro[2,3-c]pyrido[1,2-a]azepin-2(6H)-one], for which the “cells differentiated, NBT reduction assay” value with HL-60 leukemic cells [1] is about 95%. The “induction of cell surface markers CD14 and CD11b” value with CD14 and CD11b is “induce CD14 and CD11b”. For the same compound, in the data set with p21, the p21 protein result is on record as “upregulated”. The “phosphorylation of p44/p42 and p38” value in the data set with p44/p42 and p38 is “induces rapid phosphorylation of p44/p42 and p38”. For the same compound, the “proliferation of HL-60 cells” value with HL-60 cells was “potently inhibits the proliferation of HL-60 cells”. Besides, the “differentiation of leukemic cell lines” value in [2] is “can differentiate a variety of leukemic cell lines”. The cell cycle distribution entry in the data set on cell cycle (G0/G1) is reported as “accumulation of cells in G0/G1”. Besides, the CEBPβ expression result in the data set on CEBPβ is on record as “time-dependent upregulation”. Besides, the toxicity entry in data set [3] was “low toxicity”. In the data set with leukemic cells, the morphologic changes entry is on record as “clear morphologic changes suggestive of monocytic differentiation”. Further, in the data set on HL-60 leukemic cells [4], the EC50 lay within 10 to 15 µM. For the same compound, the c-myc expression result with c-myc is recorded as “potently downregulated”.
